Results taken from paper PMC3483286, “Functional characterization and evolution of PTH/PTHrP receptors: insights from the chicken” (BMC Evolutionary Biology, 2012).
“Also recorded” adds a separate entry of the source. Where a SMILES comes first, the peptide text is derived from it.

What was measured:
chicken PTH1R [1] = target: T1, chicken PTH1R (Gallus gallus, UniProt C7S302); test: cAMP accumulation in HEK293 cells stably transfected with chicken PTH1R (radioimmunoassay); format: cell-based; settings: for Emax (maximal cAMP production, PTH1R): mean ± SEM, 3 experiments in triplicate, above basal levels, * (PTHrP) p < 0.05 compared to other peptides; for accumulation of cAMP with PTH1R, human peptide, in words: human peptides at 10 nM and 100 nM, single experiment in triplicate
T1 sequence (C7S302 1-538): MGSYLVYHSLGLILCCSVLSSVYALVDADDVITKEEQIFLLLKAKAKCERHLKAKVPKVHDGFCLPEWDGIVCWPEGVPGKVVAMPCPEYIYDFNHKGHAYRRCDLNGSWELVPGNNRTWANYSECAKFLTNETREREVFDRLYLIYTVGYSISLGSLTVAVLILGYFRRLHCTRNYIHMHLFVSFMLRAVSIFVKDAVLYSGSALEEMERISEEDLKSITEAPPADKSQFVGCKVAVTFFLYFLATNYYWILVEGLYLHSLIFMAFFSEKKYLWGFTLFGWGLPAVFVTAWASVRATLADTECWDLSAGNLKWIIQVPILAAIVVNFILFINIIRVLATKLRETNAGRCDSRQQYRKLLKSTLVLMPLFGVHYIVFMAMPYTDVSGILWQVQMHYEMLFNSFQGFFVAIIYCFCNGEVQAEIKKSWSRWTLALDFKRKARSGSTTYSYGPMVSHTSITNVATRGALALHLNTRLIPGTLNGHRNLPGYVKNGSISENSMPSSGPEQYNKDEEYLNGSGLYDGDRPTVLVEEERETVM
Description: (§1) HEK293 cells were maintained in complete Dulbecco’s modified Eagle’s medium (DMEM, Sigma, Spain) with 4.5 g/L glucose, 110 mg/L sodium pyruvate and L-glutamine supplemented with 10% sterile foetal bovine serum and 0.1% penicillin: streptomycin antibiotic mixture (10.000 U:10 mg/ml, Sigma) in a humid 5% CO2 incubator (Sanyo) at 37°C. On the day prior to transfection, 2–3 x10^5 cells were seeded on 6 well-plates (Starsted, Portugal). Linearized constructs (1 μg) and Fugene 6 (Roche, Germany) cell transfection reagent were used to transfect cells according to the manufactures protocol. The transfection complex was incubated for 40 min at room temperature before adding to the cells which were left to grown for 72 hours with daily changes of complete medium. Selection of the stably transfected clones was performed with complete medium supplemented with 800 μg/ml of Geneticin (G418 sulphate, GibcoBRL) and 250 μg/ml sterile filtered 1:100 amphotericin B solution (Sigma, Spain). Cell recovery was monitored daily by constant changes of antibiotic selective medium and the success of gene integration and expression was confirmed by RT-PCR with receptor specific primers.
(§2) The capacity of chicken (1–34) PTH-family peptides to activate the stably transfected PTH1R and PTH3R cell lines was analysed by measuring intracellular cAMP production. Cell line bearing chicken receptors PTH1R and PTH3R were assayed in triplicate in the same assay in 96 well plates (Starstedt). Three independent experiments were performed. Cells were incubated at 37°C in a CO2 incubator and two days prior to the experiments, 2–3 x 10^5 cells were plated and peptide assays were carried out by adding to the recombinant cells decreasing concentrations of test peptide: 100 nM to 0.1 nM of chicken PTH(1–34), PTHrP(1–34) and PTH-L(1–34) or 100 nM of human PTH(1–34) and human TIP39 (Sigma, Spain). Prior to peptide addition, cells were incubated for 40 min with 1 mM 3-isobutyl-1-methylxantine (IBMX, Sigma), which was replaced with fresh medium containing the test peptide in the presence of 1 mM IBMX for a further 40 min. Forskolin (10 μM, Sigma) was used as positive control. Negative control assays were carried out using non-transfected cells in the presence or absence of 100 nM of each peptide. At the end of the assays, cells were washed, ressuspended in 100 μl of 1 x PBS/0.5 M EDTA and immediately frozen at −80°C to promote cell lysis for later quantification of intracellular cAMP production.
(§3) For quantification of intracellular cAMP, cells were lysed using 3 consecutive thaw (42°C)/freeze (−80°C) cycles and the supernatant and cell debris were sonicated for 20 sec on ice. Cells were boiled at 100°C for 10 min to denature proteins and the supernatant was collected after centrifugation for 10 min at 4°C and 19000 g. cAMP was quantified in duplicate by radioimmunoassay using the TRK432 kit (GE Healthcare, UK) following the manufacturer's instructions.
(§4) The results are presented as the mean ± SEM of three independent experiments carried out in triplicate for cAMP experiments and two independent experiments carried out in quadruplicate for Ca^2+ experiments. Data was plotted as the output of cAMP or Ca^2+ at different peptide concentrations for each PTHR using SigmaPlot 9 (Systat, Inc., San Jose, CA). EC50 and confidence limits were calculated using a sigmoidal curve fitting feature within the Single Ligand Binding routine of the Pharmacology module of Sigmaplot. […] To improve curve fitting the maximum empirical stimulation achieved for each receptor was assumed to be at 100 nM for all assays and the curve fitted accordingly.

chicken PTH3R [2] = target: T2, chicken PTH3R (Gallus gallus, UniProt G8YY06); test: cAMP accumulation in HEK293 cells stably transfected with chicken PTH3R (radioimmunoassay); format: cell-based; settings: for stimulation of PTH3R cAMP accumulation, comparison in words: chicken 1–34 peptides, 0.1 nM to 100 nM; for Emax (maximal cAMP production, PTH3R): mean ± SEM, 3 experiments in triplicate, above basal levels, * (PTH-L) p < 0.05 compared to other peptides
T2 sequence (G8YY06 1-530): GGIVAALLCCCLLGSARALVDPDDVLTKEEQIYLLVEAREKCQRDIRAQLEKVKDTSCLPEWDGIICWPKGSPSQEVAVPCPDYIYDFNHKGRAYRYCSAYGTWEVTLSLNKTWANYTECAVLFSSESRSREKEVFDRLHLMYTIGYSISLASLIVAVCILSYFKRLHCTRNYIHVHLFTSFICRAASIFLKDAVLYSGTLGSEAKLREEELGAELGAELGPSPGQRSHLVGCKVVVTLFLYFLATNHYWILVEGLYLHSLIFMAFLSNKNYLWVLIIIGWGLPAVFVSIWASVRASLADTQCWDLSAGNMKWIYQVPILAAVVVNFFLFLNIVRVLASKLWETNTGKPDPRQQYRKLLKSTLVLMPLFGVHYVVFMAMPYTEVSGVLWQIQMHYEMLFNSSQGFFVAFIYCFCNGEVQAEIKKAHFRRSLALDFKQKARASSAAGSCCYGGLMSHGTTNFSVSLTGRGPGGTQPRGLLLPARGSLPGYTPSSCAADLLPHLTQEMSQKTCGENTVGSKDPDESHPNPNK
Description: as §1, §2, §3, §4

chicken PTH1R [3] = target: T1, chicken PTH1R; test: intracellular Ca^2+ accumulation in HEK293 cells transfected with chicken PTH1R (Fluo-4 NW); format: cell-based; settings: HEK293, Fluo-4 NW; peptide 1 μM and 100 nM screen, decreasing concentrations
Description: as §1, with “The transfection complex was incubated for 40 min at room temperature before adding to the cells which were left to grown for 72 hours with daily changes of complete medium. Selection of the stably transfected clones was performed with complete medium supplemented with 800 μg/ml of Geneticin (G418 sulphate, GibcoBRL) and 250 μg/ml sterile filtered 1:100 amphotericin B solution (Sigma, Spain).” left out
(§5) Intracellular Ca^2+ (iCa^2+) release was measured using the Ca^2+ sensitive fluorescent dye Fluo-4 NW (Molecular Probes, Invitrogen) according to manufacturer’s instructions. […] Incubations were carried out with 100 μl of the different peptides concentrations (from 1 μM to 100 nM) and cell fluorescence was measured every 10 sec over 2 minutes after addition of reagent using a Synergy4 (Biotek, USA) plate reader. Carbachol (100 nM; Sigma, Spain) was used as a positive control for the assay and the background signal was determined by measuring fluorescence in wells containing non-transfected cells. […]

chicken PTH3R [4] = target: T2, chicken PTH3R; test: intracellular Ca^2+ accumulation in HEK293 cells transfected with chicken PTH3R (Fluo-4 NW); format: cell-based; settings: HEK293, Fluo-4 NW; 1 μM and 100 nM of each peptide
Description: as §1, with “The transfection complex was incubated for 40 min at room temperature before adding to the cells which were left to grown for 72 hours with daily changes of complete medium. Selection of the stably transfected clones was performed with complete medium supplemented with 800 μg/ml of Geneticin (G418 sulphate, GibcoBRL) and 250 μg/ml sterile filtered 1:100 amphotericin B solution (Sigma, Spain).” left out
as §5

Zebrafish PTH1R = settings: N-terminal peptides; ref [8],[10]; cited from earlier work
Excerpt: Chicken PTHRs are activated by PTH-family peptides in a dose-dependent manner. […] Mammalian PTH1R is activated by both PTH and PTHrP which have similar potency and stimulate both cAMP and iCa^2+ production.

## CC[C@H](C)[C@H](NC(=O)[C@H](CC(C)C)NC(=O)[C@H](CC(N)=O)NC(=O)[C@H](CCC(N)=O)NC(=O)[C@H](CC(C)C)NC(=O)[C@H](Cc1ccccc1)NC(=O)[C@@H](NC(=O)[C@H](CCCNC(=N)N)NC(=O)[C@H](CCCNC(=N)N)NC(=O)[C@H](CCCNC(=N)N)NC(=O)[C@H](CC(C)C)NC(=O)[C@H](CC(=O)O)NC(=O)[C@H](CCC(N)=O)NC(=O)[C@@H](NC(=O)[C@H](CO)NC(=O)[C@H](CCCCN)NC(=O)CNC(=O)[C@H](CCCCN)NC(=O)[C@H](CC(=O)O)NC(=O)[C@H](Cc1c[nH]cn1)NC(=O)[C@H](CC(C)C)NC(=O)[C@H](CC(C)C)NC(=O)[C@H](CCC(N)=O)NC(=O)[C@H](Cc1c[nH]cn1)NC(=O)[C@H](CCC(=O)O)NC(=O)[C@H](CO)NC(=O)[C@@H](NC(=O)[C@H](C)N)C(C)C)[C@@H](C)CC)[C@@H](C)CC)C(=O)N[C@@H](CCC(=O)O)C(=O)NCC(=O)N[C@H](C(=O)N[C@@H](CC(N)=O)C(=O)N[C@H](C(=O)N[C@@H](C)C(=O)O)[C@@H](C)O)C(C)C [PTHrP] (H-AVSEHQLLHDKGKSIQDLRRRIFLQNLIEGVNTA-OH; N-terminus and C-terminus assumed)
Chicken PTH1R [1]; chicken 1–34 peptides, 0.1 nM to 100 nM
  stimulation of PTH1R cAMP accumulation, comparison in words: produced the highest stimulation of PTH1R (p < 0.05)
Chicken PTH1R [1]
  Emax (maximal cAMP production, PTH1R): 17.21 ± 1.84 * pmol/well
Chicken PTH3R [2]
  stimulation of PTH3R cAMP accumulation, comparison in words: Stimulation of PTH3R was highest for PTHrP and PTH
  Emax (maximal cAMP production, PTH3R): 119.9 ± 11.76 pmol/well
Chicken PTH3R [2]; listed as PTHrP(1–34)
  stimulation of PTH3R cAMP accumulation, comparison in words: had overlapping potency with PTH(1–34) for the latter receptor
Chicken PTH1R [3]
  intracellular Ca^2+ accumulation with PTH1R, in words: stimulated intracellular Ca^2+ accumulation on activation of PTH1R; also recorded: efficiently stimulated iCa^2+ accumulation with PTH1R
Chicken PTH3R [4]
  release of intracellular Ca^2+ on PTH3R activation, in words: not PTH3R

## Human PTH: human PTH(1–34) [reference compound]
Chicken PTH1R [1]; 10^-7 M, mean ± SEM of a single experiment carried out in triplicate (Additional file 4)
  cAMP accumulation, human peptide on chicken PTH1R: 21.4 ± 10 pmol/well
Chicken PTH1R [1]
  accumulation of cAMP with PTH1R, human peptide, in words: stimulated cAMP production with an apparently similar potency to chicken PTHrP
Zebrafish PTH1R
  activation of zebrafish PTH1R, in words: activated similarly

## Human TIP39: human TIP39 (Sigma, Spain), tuberoinfundibular peptide 39 [reference compound]
Chicken PTH1R [1]
  accumulation of cAMP with PTH1R, human peptide, in words: failed to induce accumulation of cAMP with PTH1R
Chicken PTH3R [2]; human peptides at 10 nM and 100 nM, single experiment in triplicate
  cAMP production with PTH3R, human peptide, in words: only negligible cAMP production was obtained for PTH3R

## CSCC[C@H](NC(=O)[C@H](CC(C)C)NC(=O)[C@H](CCC(N)=O)NC(=O)[C@H](CCSC)NC(=O)[C@H](CCC(=O)O)NC(=O)[C@H](CO)NC(=O)[C@@H](NC(=O)[C@@H](N)CO)C(C)C)C(=O)N[C@@H](Cc1c[nH]cn1)C(=O)N[C@@H](CC(N)=O)C(=O)N[C@@H](CC(C)C)C(=O)NCC(=O)N[C@@H](CCC(=O)O)C(=O)N[C@@H](Cc1c[nH]cn1)C(=O)N[C@@H](CCCNC(=N)N)C(=O)N[C@@H](Cc1c[nH]cn1)C(=O)N[C@H](C(=O)N[C@H](C(=O)N[C@@H](CCC(=O)O)C(=O)N[C@@H](CCCNC(=N)N)C(=O)N[C@@H](CCC(N)=O)C(=O)N[C@@H](CC(=O)O)C(=O)N[C@@H](Cc1c[nH]c2ccccc12)C(=O)N[C@@H](CC(C)C)C(=O)N[C@@H](CCC(N)=O)C(=O)N[C@@H](CCSC)C(=O)N[C@@H](CCCCN)C(=O)N[C@@H](CC(C)C)C(=O)N[C@@H](CCC(N)=O)C(=O)N[C@@H](CC(=O)O)C(=O)N[C@H](C(=O)N[C@@H](Cc1c[nH]cn1)C(=O)N[C@@H](CO)C(=O)N[C@@H](C)C(=O)O)C(C)C)C(C)C)[C@@H](C)O [PTH] (H-SVSEMQLMHNLGEHRHTVERQDWLQMKLQDVHSA-OH; N-terminus and C-terminus assumed)
Chicken PTH1R [1]
  Emax (maximal cAMP production, PTH1R): 6.03 ± 0.78 pmol/well
Chicken PTH3R [2]
  stimulation of PTH3R cAMP accumulation, comparison in words: Stimulation of PTH3R was highest for PTHrP and PTH
  Emax (maximal cAMP production, PTH3R): 144.7 ± 20.02 pmol/well
Chicken PTH1R [3]
  intracellular Ca^2+ accumulation with PTH1R, in words: had no effect
